Where two headings read alike, the source gives them in different places.
Tests used:
[1] = Calcium available to human body (bioavailability) from Ca products; conditions: consumption 1000 mg of product
Excerpt: Bioavailability of Calcium Lactate Gluconate: the effectiveness of the nutrient depends on its bioavailability, which means how well the human body absorbs and utilizes it for various functions occurring in the body. On an average, about 10 to 30% of the total calcium is only get absorbed from a mixed diet by healthy adults. Many different factors influence this level of availability, one being the type of salt providing calcium. […] Calcium Lactate Gluconate is primarily used in applications where solubility and clarity are important.

[2] = cited from earlier work
[3] = cited from earlier work; for % bioavailability of Ca out of inorganic Ca: consumption 1000 mg of product; for Bioavailability (in words): human and animal studies
[4] = Solubility in water; conditions: RDA of calcium equals 800 mg per day in the EU
[5] = cited from earlier work; remark: listed apart in the source
[6] = tested on: women; conditions: over 4,000 women, calcium in drinking water; cited from earlier work

Compound: CC(O)C(=O)[O-].O=C([O-])[C@H](O)[C@@H](O)[C@H](O)[C@H](O)CO.[Ca+2] [CLG, Calcium Lactate Gluconate]
- Total Ca absorbed by the body (mg) [1]: Max.
- Solubility (in words) [2]: High solubility (the most soluble forms of organic Ca)
- Solubility [g Ca/L water] ([2]; water): 52 g Ca/L water
- Solubility [g/L water] ([2]; water): 400 g/L water
- Solubility [g/L water] ([2]; water, listed as Calcium Lactate Gluconate): approx. 400 g/L water
- % bioavailability of Ca out of inorganic Ca [3]: High*
- Bioavailability (in words) [3]: highly bioavailable
- Bioavailability (in words) ([3]; listed as Ca lactate gluconate): Excellent bioavailability. (maintains that solubility during transit through the small intestine, during which time it is exposed to passive diffusion sites, therefore maximizing Ca absorption).
- % of RDA in 100 ml [4]: 650%

Compound: [Cu] [Copper]
- Safe Intake level ([5]; in vivo): 10 mg
- safe upper limit ([5]; in vivo): limit of 10 mg/day in a 60 kg adult

Compound: CC(O)C(=O)[O-].CC(O)C(=O)[O-].[Ca+2] (stereo not shown) [calcium lactate]
- Total Ca absorbed by the body [1]: 122 mg
- % bioavailability of Ca out of inorganic Ca [3]: 33%

Compound: O=C([O-])[O-].[Ca+2] [Ca Carbonate, calcium carbonate]
- Total Ca absorbed by the body [1]: 40 mg
- % bioavailability of Ca out of inorganic Ca [3]: 10%

Compound: [Ca+2] [Calcium]
- total calcium absorbed from a mixed diet ([3]; healthy adults, on an average): 10 to 30%
- bone density [6]: associated with an increase in their bone density
- Validation: risk of toxicity (in words) ([5]; 60 mg per liter): No risk of toxicity
- Safe Intake level ([5]; Source: Expert group of vitamins & Minerals, UK - 2003): 1500 mg
- doses that might induce some gastrointestinal side effects in some individuals ([5]; human trials): indicate that higher doses (of 2500 mg
- supplemental Ca with no adverse effect ([5]; in vivo): 1500 mg per day

Compound: calcium phosphate [Ca Phosphate]
- Total Ca absorbed by the body [1]: 39 mg
- % bioavailability of Ca out of inorganic Ca [3]: 10%

Compound: O=C([O-])CC(O)(CC(=O)[O-])C(=O)[O-].O=C([O-])CC(O)(CC(=O)[O-])C(=O)[O-].[Ca+2].[Ca+2].[Ca+2] [Ca Citrate]
- % bioavailability of Ca out of inorganic Ca [3]: 50%

Compound: [Ca+2] [Ionic Ca (Ca^++), Ionic Ca]
- % bioavailability of Ca out of inorganic Ca [3]: 100%

— patent US20130273207A1, “Calcium Fortifying Composition for Strength, a Hydration Supplement, and Process for Preparing the Same” (priority 2010, published 2013)
